The test system of data set [1] is Male rats. Kind of data set: Another test: relative amounts of urine, Na+, K+, Cl- for 30 minutes before and after administration (Table 3). The format is in vivo, rat. To be noted: Furosemide 0.3 μmol.
Method: Male rats weighing 300 to 400 grams were anesthetized by intraperitoneal administration of pentobarbital at a dosage of 60 mg/kg, and used for tests of the β-rANP according to the method described in Life Sciences, Vol. 28, pp 89-94.
To keep the respiratory tract open, a tracheal cannula (PE-240 Clay-Adams) was inserted into the trachea. An arterial cannula (PE-50) was inserted into a femoral artery for measurement of the blood pressure, and a venous cannula was inserted into a femoral vein for the administration of Ringer's solution. 1.2 ml of Ringer's solution was infused at a flow rate of 1.2 ml/hour.
A bladder cannula made of silastic tube with a inner diameter of 0.02 inches and an outer diameter of 0.037 inches was inserted into the bladder, and via the cannula, a urine sample was collected into a test tube. The collection of urine was carried out for 30 minutes before administration of the test compound, and every five minutes after the administration.
A predetermined amount of the test compound β-rANP was dissolved in 50 μl of sterilized physiological saline with 5 μg of bacitracin, and the solution was injected into the jugular vein.
Data set [2] has as its system Male rats. Nature of the data set: Diuretic and natriuretic test in anesthetized rats, urine collected before and 5 minutes after jugular vein injection (Table 2). The format is in vivo, rat. To be noted: furosemide 1.21 μmole (group IV). Here is the method:
To keep the respiratory tract open, a tracheal cannula (PE-240 Clay-Adams) was inserted into the trachea. An arterial cannula (PE-50) was inserted into a femoral artery for measurement of the blood pressure, and a venous cannula was inserted into a femoral vein for the administration of Ringer's solution.
The collection of urine was carried out for 30 minutes before administration of the test compound, and every five minutes after the administration.
The control group (group I) was administered 50 μl of physiological saline containing only bacitracin.

The nature of another data set: Solubility in solvents. It is filed as physicochemical. The source says:
(6) Solubility in solvents: soluble in water, partially in methanol, and acetic acid; insoluble in ethyl acetate, butyl acetate, ethyl ether, hexane, petroleum ether, benzene, and chloroform.

Data set [3] is described as follows: Repeated administration: antibody production, anaphylaxis shock, toxicity. The format is in vivo.

Bridge positions count the residues as written; N and C are the ends. Ends that are not written are not given here.

Take `NS(=O)(=O)c1cc(C(=O)O)c(NCc2ccco2)cc1Cl` [Furosemide, furosemide]: the “Urine volume, percentage after relating to before” value with Male rats [1] turned out to be 497 ± 165%. Also, the “Urine volume A” value with Male rats [2] (A: sample collected 5 minutes after administration) is 167 ± 28 µL/min. In addition, the “Urine volume B” value with Male rats [2] (B: sample collected 30 minutes before administration) turned out to be 8.6 ± 1.9 µL/min.

For “PSDRSALLKSKLRALLAGPRSLRRSSCFGGRIDRIGAQSGLGCNSFRY (disulfide 27-43) [β-rANP, β-rat atrial natriuretic polypeptide]”, the Solubility in solvents result in the data set “Solubility in solvents” (ethyl acetate, butyl acetate, ethyl ether, hexane, petroleum ether, benzene, and chloroform) was “insoluble”; in “Solubility in solvents” (methanol, and acetic acid) it was “partially”; in the data set “Solubility in solvents” (water) it was “soluble”. Moreover, the toxicity entry in data set [3] (in vivo) is reported as “little toxicity”. The anaphylaxis shock entry in data set [3] (repeated administration) is reported as “does not cause”. Further, the production of antibodies result in data set [3] (repeated administration) is listed as “does not stimulate”.

The values are drawn from patent publication US4657891A, “Diuretic peptide, and production and use thereof” (Suntory Limited, priority 1984, dated 1987).
